# Reference: patent publication US20230097700A1, “AZETIDINE SULFONAMIDE COMPOUND” (DAIICHI SANKYO COMPANY, LIMITED, priority 2019, published 2023)
# Legend:
# [1] = tested on: activated T cells (CD4+ T cells derived from the mouse spleen); test: Incorporation of 3H-thymidine into activated T cells; type: cell-based, mouse (C57BL/6J); conditions: 3H-thymidine incorporation, mouse spleen CD4+ T cells activated with Dynabeads Mouse T-Activator CD3/CD28
# Description: Effect of a test substance on incorporation of ^3H-thymidine was evaluated using T cells derived from the mouse spleen. The spleen was excised out from a C57BL/6J mouse euthanized, cut into pieces, ground on a cell strainer (40 μm mesh) and centrifuged to collect spleen cells. CD4+ T cells were isolated from the spleen cells by use of EasySep Mouse CD4+ T cell isolation kit (STEMCELL Technologies). CD4+ T cells were seeded to a 96-well round-bottom plate. Test substance dissolved in DMSO (dimethyl sulfoxide) or vehicle (DMSO) was added to culture medium and Dynabeads Mouse T-Activator CD3/CD28 (Thermo Fisher Scientific Inc.) was added. Culture was carried out at 37° C. in 5% CO2. After culture was carried out for 24 hours, ^3H-thymidine (PerkinElmer) diluted with the culture medium was added to individual wells. Culture was further carried out overnight at 37° C. in 5% CO2. In order to measure ^3H-thymidine incorporated in nuclei of the cells, the cells were collected on a filter plate UniFilter-96 GF/B (PerkinElmer) by use of a FilterMate Universal Harvester (PerkinElmer). After the filter plate was placed in a dryer and allowed to stand still for 2 hours or more, scintillation cocktail MicroScint-O (PerkinElmer) was added and radioactivity was measured by TopCount NXT (PerkinElmer). With the radioactivity of a group not containing a test substance being specified as 100% and the radioactivity of a group not activated being specified as 0%, relative radioactivity values of individual wells to which the test substance was added (proliferation rate, % of vehicle) were calculated. The values of “% of vehicle” were entered in analysis software Prism (Version 4.03, GraphPad Software). “Nonlinear regression Log (inhibitor) vs reaction variable tilt” was selected and sigmoid type-fitting (Bottom=0, Top=100) was carried out to calculate 50% inhibition concentration (IC50). The compound of the present invention suppresses ^3H-thymidine incorporation in activated T cells.
# [2] = tested on: IFN-α production in mouse spleen cells; test: IFN-α production in mouse spleen cells stimulated with TLR9 ligand CpG-ODN D35; type: cell-based, mouse (C57BL/6J)
# Description: The concentration of test substance added is 1 nM to 300 nM. The graph represents a curve showing response to concentration of a test substance, with the IFN-α production of a group not containing a test substance being specified as 100% and the IFN-α production of a group not stimulated being specified as 0%.
# IFN-α production by stimulation with TLR9 ligand CpG-ODN D35 activating pDC was evaluated. Spleen cells were prepared from a C57BL/6J mouse euthanized in the same manner as in Test Example 1 and seeded to a 96-well round-bottom plate. Test substance dissolved in DMSO or vehicle (DMSO) was added to culture medium. After pre-incubation was carried out for 30 minutes, CpG-ODN […] (final concentration 1 μM) was added. Culture was carried out at 37° C. in 5% CO2. After culture was carried out for 24 hours, the culture supernatant was recovered. The concentration of IFN-α in the supernatant was measured by ELISA kit (Mouse IFN-alpha Platinum ELISA Kit, eBioscience). With the IFN-α production of a group not containing a test substance being specified as 100% and the IFN-α production of a group not activated being specified as 0%, relative values of IFN-α production of individual wells (IFN-α production rate, % of vehicle) were calculated. The values of “% of vehicle” of IFN-α production were entered in analysis software Prism (Version 5.0, GraphPad Software). […]
# [3] = tested on: ConA induced mouse cytokine production model; test: ConA induced mouse cytokine production model, IFN-γ in the plasma; type: in vivo, mouse (Balb/c); conditions: one hour before second ConA treatment
# Description: In this test, mice were treated with concanavalin A (ConA) to activate lymphocytes and the medicinal effect of a test substance was evaluated based on the production of IFN-γ. A system in which cytokine production based on expression of LAT1 is induced, by treating mice with ConA twice at optimal timing, was established. To female Balb/c mice of 7 weeks old, a ConA solution (0.4 mg/mL, Concanavalin A, WAKO, 037-08774) prepared with PBS (D-PBS (−), WAKO, 049-29793) was administered (4 mg/kg, twice at an interval of 16 hours) through the tail vein. Four hours later, under anesthesia by isoflurane inhalation, blood was taken from the posterior vena cava of each of the mice. The blood was centrifuged to collect the plasma. The concentration of IFN-γ in the in plasma was measured by AlphaLISA immunoassay kit (Mouse Interferon-gamma (mIFN-γ) Kit, PerkinElmer, AL501C). Test substance was dissolved in 0.5% MC or mushed in an agate mortar, suspended in 0.5% MC to prepare a solution to be administered (1 or 3 mg/mL) and orally administered one hour before the second treatment with ConA so as to be 10 mL/kg (10 or 30 mg/kg. To Vehicle group, 0.5% MC was administered similarly so as to be 10 mL/kg). Test substances were evaluated. Suppression rates (%) were calculated in accordance with the following expression. Suppression rate (%)=100−[(average value of test substance administration group−average value of Normal group)/(average value of Vehicle group−average value of Normal group)×100] Whether the data of two groups, Normal group and Vehicle group, differ or not was determined by Student's or Welch's t test. Whether the data of Vehicle group and a test substance administration group are different or not was analyzed by parametric multiple comparison test, Dunnett test. The compounds (test substances) suppressed IFN-γ production in a dose-dependent manner.
Compound,IC50 [1] [nM],"IC50 ([2]; CpG-ODN stimulation 1 μM, 24 hours, ELISA) [nM]",suppressive action on IFN-α production ([2]; test substance 1 nM to 300 nM),Percent suppression (%) ([3]; 10 mg/kg oral),Percent suppression (%) ([3]; 30 mg/kg oral)
"N[C@@H](Cc1cccc(S(=O)(=O)N2CC(Oc3cccc(F)c3)(c3ccccc3)C2)c1)C(=O)O [Example 1, (2S)-2-Amino-3-(3-{[3-(3-fluorophenoxy)-3-phenylazetidin-1-yl]sulfonyl)phenyl)propanoic acid]",20,13,concentration-dependent suppressive action,–,–
"Cl.[2H]c1c([2H])c([2H])c(OC2(c3ccccc3)CN(S(=O)(=O)c3cccc(C[C@H](N)C(=O)OC(C(=O)N(C)C)C(C)C)c3)C2)c([2H])c1[2H] (stereo partly drawn) [Example 25, 1-(Dimethylamino)-3-methyl-1-oxobutan-2-yl (2S)-2-amino-3-(3-{3-phenyl-3-[(^2H5)phenyloxy]azetidin-1-sulfonyl}phenyl)propanoate monohydrochloride]",–,–,–,31,51
"Cl.[2H]c1c([2H])c([2H])c(OC2(c3ccc(F)cc3)CN(S(=O)(=O)c3cccc(C[C@H](N)C(=O)OC(C(=O)N(C)C)C(C)C)c3)C2)c([2H])c1[2H] (stereo partly drawn) [Example 27, 1-(Dimethylamino)-3-methyl-1-oxobutan-2-yl (2S)-2-amino-3-(3-{3-(4-fluorophenyl)-3-[(^2H5)phenyloxy]azetidin-1-sulfonyl}phenyl)propanoate monohydrochloride]",–,–,–,47,58
"CC(OC(=O)[C@@H](N)Cc1cccc(S(=O)(=O)N2CC(Oc3ccc(F)cc3)(c3ccc(F)cn3)C2)c1)C(=O)N(C)C.Cl.Cl (stereo partly drawn) [Example 62, 1-(Dimethylamino)-1-oxopurpan-2-yl (2S)-2-amino-3-(3-{[3-(4-fluorophenoxy)-3-(5-fluoropyridin-2-yl)azetidin-1-yl]sulfonyl}phenyl)propanoate dihydrochloride]",–,–,–,43,54
"CC(C)C(OC(=O)[C@@H](N)Cc1cccc(S(=O)(=O)N2CC(Oc3ccc(F)cc3)(c3ccc(F)cn3)C2)c1)C(=O)N(C)C.Cl.Cl (stereo partly drawn) [Example 69, 1-(Dimethylamino)-3-methyl-1-oxobutan-2-yl (2S)-2-amino-3-(3-{[3-(4-fluorophenoxy)-3-(5-fluoropyridin-2-yl)azetidin-1-yl]sulfonyl}phenyl)propanoate dihydrochloride]",–,–,–,33,44
"CC(C)C(OC(=O)[C@@H](N)Cc1cccc(S(=O)(=O)N2CC(Oc3ccccc3)(c3ccccc3)C2)c1)C(=O)N(C)C.Cl (stereo partly drawn) [Example 91, 1-(Dimethylamino)-3-methyl-1-oxobutan-2-yl (2S)-2-amino-3-[3-(3-phenoxy-3-phenylazetidin-1-sulfonyl)phenyl]propanoate monohydrochloride]",–,–,–,55,53
"CC(C)C(OC(=O)[C@@H](N)Cc1cccc(S(=O)(=O)N2CC(Oc3ccccc3)(c3ccc(F)cc3)C2)c1)C(=O)N(C)C.Cl (stereo partly drawn) [Example 93, 1-(Dimethylamino)-3-methyl-1-oxobutan-2-yl (2S)-2-amino-3-(3-{[3-(4-fluorophenyl)-3-phenoxyazetidin-1-yl]sulfonyl}phenyl)propanoate monohydrochloride]",–,–,–,46,34
